Data set [1] concerns the target T1, Mutant EZH2 (A677G) (Homo sapiens, UniProt Q15910, A677G).
T1 construct: purchased BPS 51004
Briefly: AlphaLISA assay on mutant PRC2 complex, EZH2 A677G. The data set is classed as biochemical. On the technique in general: Alpha assays give light when donor and acceptor beads are brought close together.
Procedure: Detection Method: AlphaLISA
(§1) Finally, 15 μl detection solution mixture was added under low light, and incubated at room temperature for 60 minutes, and read the value.

For data set [2], the target named is T2, Mutant EZH2 (Y641N) (Homo sapiens, UniProt Q15910, Y641N).
T2 construct: purchased BPS 51004
The data set is described as follows: AlphaLISA assay on mutant PRC2 complex, EZH2 Y641N. The format is biochemical.
Procedure: Detection Method: AlphaLISA
as §1

The subject of data set [3] is WSU-DLCL2 cells. The data set is described as follows: Calcein AM proliferation assay, WSU-DLCL2 cells. The settings on record: read-out: WSU-DLCL2 proliferation IC50. The format is cell-based, human.
Procedure: (§2) By observing under a microscope, it was confirmed that the cells are in good condition. The cells were transferred to a 15 mL centrifuge tube, which was centrifuged at 1000 rpm for 5 minutes.
Gradient dilutions of the compounds in DMSO were performed, and a compound plate with a final concentration of 500-fold was prepared. 1.2 μL of 500× compound was pipetted, transferred to 200 μL medium, and pipetted to mix well to obtain a 3× compound intermediate plate. 50 μL 3× compound is pipetted and added to the cell plate according to the set arrangement.
The cells of the above concentration were inoculated in 96-well plates, 100 μL/well (the number of cells in each well is 10,000). The cell plate was placed in a carbon dioxide incubator for 4 days. The cell plate was taken out. After mixed uniformly, a certain volume of cell suspension was drawn, and stained with Calcein AM. The number of cells in each well was counted with Acumen. According to the number of detected cells, 10,000 cells were re-inoculated in 96-well plates. As above, the compound was added. After placed in a carbon dioxide incubator for 3 days (day 7). The cell plate was taken out again. After mixed uniformly, a certain volume of cell suspension was drawn, stained with Calcein AM. The number of cells in each well was counted with Acumen. The cells were cultured for another 4 days (day 11), and the cell plate was taken out for the third time. After mixed uniformly, a certain volume of cell suspension was drawn, and stained with Calcein AM. The number of cells in each well was counted with Acumen. According to the number of detected cells, 10,000 cells were re-inoculated in 96-well plates. As above, the compound was added. […] After Calcein AM staining, the number of the cells was counted to obtain the final count result. The data of day 14 was processed to obtain the corresponding half-inhibitory concentration (IC50).
Using GraphPad Prism 5 software, a non-linear regression model was used to draw the S-type dose-survival rate curve and to calculate the IC50 value.
The test system of data set [4] is Pfeiffer cells. The data set is described as follows: Calcein AM proliferation assay, Pfeiffer cells. The data set is classed as cell-based, human. The settings on record: read-out: Pfeiffer proliferation IC50.
In data set [5] the test system is Karpas 422 cells. Briefly: Calcein AM proliferation assay, Karpas 422 cells. The format is cell-based, human. The settings on record: read-out: Karpas422 proliferation IC50.
In data set [6] the target is wild-type EZH2 (Homo sapiens, UniProt Q15910). Briefly: Radiometric assay of activity on wild-type PRC2 EZH2.
Chain of wild-type EZH2 (Q15910 whole entry): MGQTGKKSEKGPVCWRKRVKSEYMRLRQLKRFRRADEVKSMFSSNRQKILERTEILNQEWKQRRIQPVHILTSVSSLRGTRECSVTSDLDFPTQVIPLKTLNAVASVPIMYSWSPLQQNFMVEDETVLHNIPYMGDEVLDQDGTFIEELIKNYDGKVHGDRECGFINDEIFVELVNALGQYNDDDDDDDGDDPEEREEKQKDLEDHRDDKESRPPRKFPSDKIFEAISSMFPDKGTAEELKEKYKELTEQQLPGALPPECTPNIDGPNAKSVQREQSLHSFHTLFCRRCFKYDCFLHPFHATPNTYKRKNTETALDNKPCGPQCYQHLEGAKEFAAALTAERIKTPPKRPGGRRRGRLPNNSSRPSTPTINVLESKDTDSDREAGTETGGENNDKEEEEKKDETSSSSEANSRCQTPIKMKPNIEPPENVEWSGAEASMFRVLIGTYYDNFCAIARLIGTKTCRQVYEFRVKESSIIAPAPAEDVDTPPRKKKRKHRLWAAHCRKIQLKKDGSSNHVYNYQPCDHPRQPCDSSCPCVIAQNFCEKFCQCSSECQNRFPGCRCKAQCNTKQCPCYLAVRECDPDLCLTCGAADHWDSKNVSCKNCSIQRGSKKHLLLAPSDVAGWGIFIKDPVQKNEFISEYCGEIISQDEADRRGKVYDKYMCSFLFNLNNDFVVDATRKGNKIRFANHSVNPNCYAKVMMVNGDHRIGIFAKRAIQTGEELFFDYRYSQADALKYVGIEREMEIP
Chain of wild-type EZH2 (O75530 whole entry partner): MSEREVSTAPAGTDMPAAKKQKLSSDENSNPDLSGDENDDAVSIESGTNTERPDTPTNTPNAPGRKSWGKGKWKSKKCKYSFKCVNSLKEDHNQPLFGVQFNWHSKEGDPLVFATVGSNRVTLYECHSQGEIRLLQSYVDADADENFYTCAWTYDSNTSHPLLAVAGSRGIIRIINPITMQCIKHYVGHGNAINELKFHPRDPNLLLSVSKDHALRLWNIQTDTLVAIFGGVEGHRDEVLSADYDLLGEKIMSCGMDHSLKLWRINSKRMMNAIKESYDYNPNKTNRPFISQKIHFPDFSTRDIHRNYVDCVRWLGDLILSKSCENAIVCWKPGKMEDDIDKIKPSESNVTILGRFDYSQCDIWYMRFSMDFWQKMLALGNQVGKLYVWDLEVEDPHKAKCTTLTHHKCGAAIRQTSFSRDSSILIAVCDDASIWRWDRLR
Chain of wild-type EZH2 (Q15022 whole entry partner): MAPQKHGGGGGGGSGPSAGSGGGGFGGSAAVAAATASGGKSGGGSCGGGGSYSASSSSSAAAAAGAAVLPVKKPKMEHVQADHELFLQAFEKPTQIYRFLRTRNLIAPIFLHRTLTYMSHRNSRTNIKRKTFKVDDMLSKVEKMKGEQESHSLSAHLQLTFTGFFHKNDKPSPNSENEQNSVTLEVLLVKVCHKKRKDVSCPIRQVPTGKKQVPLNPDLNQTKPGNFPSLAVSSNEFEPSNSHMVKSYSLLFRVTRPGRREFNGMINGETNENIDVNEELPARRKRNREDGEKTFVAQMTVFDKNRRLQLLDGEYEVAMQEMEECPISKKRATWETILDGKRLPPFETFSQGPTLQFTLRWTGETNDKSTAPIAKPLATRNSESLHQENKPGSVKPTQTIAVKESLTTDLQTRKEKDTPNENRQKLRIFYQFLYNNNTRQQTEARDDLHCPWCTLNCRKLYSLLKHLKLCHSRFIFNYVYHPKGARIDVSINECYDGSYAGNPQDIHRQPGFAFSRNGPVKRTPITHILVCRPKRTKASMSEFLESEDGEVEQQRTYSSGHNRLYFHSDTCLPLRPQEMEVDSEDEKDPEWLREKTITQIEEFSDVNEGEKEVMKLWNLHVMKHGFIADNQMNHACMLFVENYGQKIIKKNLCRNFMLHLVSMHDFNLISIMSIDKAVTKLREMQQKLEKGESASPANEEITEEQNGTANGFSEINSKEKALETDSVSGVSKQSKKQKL
Chain of wild-type EZH2 (Q09028 whole entry partner): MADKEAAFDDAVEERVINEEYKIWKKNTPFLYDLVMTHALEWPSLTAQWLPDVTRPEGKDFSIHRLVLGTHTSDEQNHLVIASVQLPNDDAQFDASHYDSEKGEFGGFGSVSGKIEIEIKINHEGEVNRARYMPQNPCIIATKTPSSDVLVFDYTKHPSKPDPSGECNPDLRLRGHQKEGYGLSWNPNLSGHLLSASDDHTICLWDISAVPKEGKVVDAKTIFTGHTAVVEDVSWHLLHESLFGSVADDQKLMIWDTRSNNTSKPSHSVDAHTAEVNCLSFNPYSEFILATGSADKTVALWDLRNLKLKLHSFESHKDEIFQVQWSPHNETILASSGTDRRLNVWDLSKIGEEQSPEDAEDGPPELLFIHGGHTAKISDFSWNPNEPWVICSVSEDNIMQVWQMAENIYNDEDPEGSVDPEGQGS
Procedure: 10 microliters (μL) of the compound of the test example and wild-type EZH2 were added to each well. After being incubated at room temperature for 15 minutes, peptides and [3H]-labeled methyl donor S-adenosylmethionine (SAM) were added. After reacting at room temperature for 1 hour (h), cold SAM was added to terminate the reaction. 25 μl reaction solution was transferred to the scintillation plate. After incubating for 1 hour (h) at room temperature, the plate was washed three times with deionized water and 0.1% Tween 20. The value was read with a PerkinElmer liquid scintillation/luminescence counter, and the half inhibitory concentration (IC50) of the compound was calculated with the Prism 5 software (GraphPad Prism 5).
In data set [7] the target is T3, Mutant EZH2 (Y641F) (Homo sapiens, UniProt Q15910, Y641F).
T3 construct: purchased BPS 51004
T3 sequence (Q15910 whole entry Y641F): as the sequence (Q15910 whole entry) above, with Y641F counted along it
T3 sequence (O75530 whole entry partner): as the sequence (O75530 whole entry partner) above
T3 sequence (Q15022 whole entry partner): as the sequence (Q15022 whole entry partner) above
T3 sequence (Q09028 whole entry partner): as the sequence (Q09028 whole entry partner) above
T3 sequence (Q6ZN18 whole entry partner): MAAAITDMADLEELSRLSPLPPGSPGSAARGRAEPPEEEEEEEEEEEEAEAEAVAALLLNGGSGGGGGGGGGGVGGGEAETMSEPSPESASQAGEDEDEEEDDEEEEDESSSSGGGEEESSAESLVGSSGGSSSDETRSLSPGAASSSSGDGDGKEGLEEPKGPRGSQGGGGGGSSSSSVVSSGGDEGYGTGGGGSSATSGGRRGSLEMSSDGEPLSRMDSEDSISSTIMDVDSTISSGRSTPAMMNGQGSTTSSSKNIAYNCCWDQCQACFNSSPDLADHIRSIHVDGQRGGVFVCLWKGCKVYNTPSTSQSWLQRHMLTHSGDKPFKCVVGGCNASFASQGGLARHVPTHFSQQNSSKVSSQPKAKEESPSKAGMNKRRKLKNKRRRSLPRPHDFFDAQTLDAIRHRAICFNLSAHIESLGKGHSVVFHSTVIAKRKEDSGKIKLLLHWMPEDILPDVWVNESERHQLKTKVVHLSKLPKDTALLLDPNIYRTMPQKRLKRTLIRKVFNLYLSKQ
Briefly: AlphaLISA assay on mutant PRC2 complex, EZH2 Y641F. The data set is classed as biochemical.
Procedure: Detection Method: AlphaLISA
as §1

Data set [8] can be described thus: Pharmacokinetics experiment in rats. The data set is classed as in vivo. The conditions noted are these: rat, plasma, male SD rats; for bioavailability: oral 20 mg/kg vs intravenous 4 mg/kg, read-out: Bioavailability (F %); for AUC: read-out: Area under the curve (AUC); for half-life: read-out: Half life (T1/2) (converted); for Cmax: read-out: Blood drug level (Cmax). As for the experimental part:
Male SD rats weighing 200-300 g and 8 weeks old were used as experimental animals. […] The pharmacokinetic behavior of the compound of the present invention in rats was studied, and the pharmacokinetic characteristics thereof were evaluated.
A certain amount of the compound was weighed, dissolved in 0.10% tween for vortex and ultrasound, and then 0.5% sodium carboxymethyl cellulose (CMC-Na) solution was added to prepare a uniform solution.
The above-mentioned compounds were applied intravenously and orally to rats at a dose of 4 mg/kg and a dose of 20 mg/kg, respectively. At 0.083 h, 0.25 h, 0.5 h, 1.0 h, 2.0 h, 4.0 h, 6.0 h, 8.0 h, 12.0 h, and 24.0 h after application, 0.2 mL of blood was collected from the orbit, and placed in an anticoagulant tube, which was centrifuged at 6000 rpm for 10 minutes at 4° C. The plasma was separated and stored at −80° C.

Data set [9] has as its system WSU-DLCL2 cell mouse xenograft tumor model. Briefly: Pharmacodynamic experiment in WSU-DLCL2 mouse xenograft tumor model. The conditions noted are these: CB17/SCID mice. The format is in vivo.
Procedure: A certain amount of the compound was weighed, dissolved in 0.1% tween for vortex and ultrasound, and then 0.5% sodium carboxymethyl cellulose (CMC-Na) solution was added to prepare a uniform solution.
as §2
Setting [10] is: Homo sapiens, WSUDLCL2, day 14 data, Calcein AM staining.
The mark [11] stands for this setting: Homo sapiens, Pfeiffer, day 14 data, Calcein AM staining.
[12] abbreviates: Homo sapiens, KARPAS-422, day 14 data, Calcein AM staining.
[13] abbreviates: 150 mg/kg gastric irrigation, 21 days.
The mark [14] stands for this setting: day 14 data, Calcein AM staining.

Each structure is given as a SMILES string. Where two headings read alike, the source gives them in different places.

Broadly, the bioavailability is dose-corrected exposure relative to a reference, in per cent. The AUC is concentration integrated over time. What is called Cmax is the peak of the concentration-time curve.

T2 sequence (Q15910 whole entry Y641N): as the sequence (Q15910 whole entry) above, with Y641N counted along it
T2 sequence (O75530 whole entry partner): as the sequence (O75530 whole entry partner) above
T2 sequence (Q15022 whole entry partner): as the sequence (Q15022 whole entry partner) above
T2 sequence (Q09028 whole entry partner): as the sequence (Q09028 whole entry partner) above
T2 sequence (Q6ZN18 whole entry partner): as the sequence (Q6ZN18 whole entry partner) above
T1 sequence (Q15910 whole entry A677G): as the sequence (Q15910 whole entry) above, with A677G counted along it
T1 sequence (O75530 whole entry partner): as the sequence (O75530 whole entry partner) above
T1 sequence (Q15022 whole entry partner): as the sequence (Q15022 whole entry partner) above
T1 sequence (Q09028 whole entry partner): as the sequence (Q09028 whole entry partner) above
T1 sequence (Q6ZN18 whole entry partner): as the sequence (Q6ZN18 whole entry partner) above

On to `CCN(c1cc(-c2cc3c(cc2F)C(N2CCOCC2)CC3)c(F)c(C(=O)NCc2c(C)cc(C)[nH]c2=O)c1C)C1CCOCC1` (stereo not drawn) [Compound 28], for which the IC50 in [1] is 0.5 nM; in data set [2], 0.3 nM; in data set [3] (setting [10]), 3.47 nM; in [4] (setting [11]) it was 1.53 nM; in data set [5] (setting [12]) it was 2.7 nM; in [6], 0.91 nM.
With `CCN(c1cc(N2Cc3ccc(NC4CCOCC4)cc3C2)cc(C(=O)NCc2c(C)cc(C)[nH]c2=O)c1C)C1CCOCC1` [Compound 23], the IC50 in data set [1] was 0.66 nM; in [2], 0.5 nM; in [3] (setting [10]) it was 6.48 nM; in data set [4] (setting [11]) it was 4.36 nM; in [5] (setting [12]) it was 4.09 nM; in data set [6], 0.89 nM.
With `CCN(c1cc(-c2ccc3c(c2)CCC3N2CCOCC2)c(Cl)c(C(=O)NCc2c(C)cc(C)[nH]c2=O)c1C)C1CCOCC1` (stereo not drawn) [Compound 10, 2-chloro-N-((4,6-dimethyl-2-oxo-1,2-dihydropyridin-3-yl)methyl)-5-(ethyl(tetrahydro-2H-pyran-4-yl)amino)-6-methyl-3-(1-morpholino-2,3-dihydro-1H-inden-5-yl)benzamide], the IC50 in [7] is 0.58 nM; in [2] it was 0.3 nM; in data set [3] (setting [10]), 1.17 nM; in data set [4] (setting [11]), 0.38 nM; in [5] (setting [12]), 0.58 nM; in [6], 0.63 nM. Moreover, the bioavailability in data set [8] was found to be 30.6%. The AUC turned out to be 0.937 µg·h/mL in data set [8] (intravenous dosing 4 mg/kg) and 1.44 µg·h/mL in data set [8] (oral dosing 20 mg/kg). In addition, in [8] (intravenous dosing 4 mg/kg), the half-life was 1.64 h. For the same compound, the Cmax in [8] (oral dosing 20 mg/kg) is 0.405 µg/mL.
In the case of `CCN(c1cc(N2Cc3cn(C)cc3C2)cc(C(=O)NCc2c(C)cc(C)[nH]c2=O)c1C)C1CCOCC1` [Compound 21, N-((4,6-dimethyl-2-oxo-1,2-dihydropyridin-3-yl)methyl)-3-(ethyl (tetrahydro-2H-pyran-4-yl)amino)-2-methyl-5-(5-methyl-3,5-dihydropyrrolo[3,4-c]pyrrole-2(1H)-yl)benzamide], the IC50 was 9.38 nM in data set [3] (setting [10]), 7.16 nM in data set [4] (setting [11]), 8.15 nM in data set [5] (setting [12]) and 0.9 nM in data set [6]. The bioavailability in data set [8] is 26.8%. Also, the AUC in [8] (intravenous dosing 4 mg/kg) stood at 0.932 µg·h/mL; in data set [8] (oral dosing 20 mg/kg) it was 1.25 µg·h/mL. Moreover, in data set [8] (intravenous dosing 4 mg/kg), the half-life is 1.72 h. Also, the peak concentration (Cmax) in data set [8] (oral dosing 20 mg/kg) is 0.426 µg/mL. The same compound registered a tumor growth inhibition in [9] (setting [13]) of 90%.
On to `CCN(c1cc(N2Cc3ccccc3C2)cc(C(=O)NCc2c(C)cc(C)[nH]c2=O)c1C)C1CCOCC1` [Compound 15, N-4,6-((dimethyl-2-oxo-1,2-dihydropyridin-3-yl)methyl)-3-(ethyl (tetrahydro-2H-pyran-4-yl)amino)-5-(5-isoindolin-2-yl)-2-methylbenzamide], for which the IC50 in data set [7] is 0.78 nM; in data set [1], 0.24 nM; in data set [2] it was 0.1 nM; in data set [3] (setting [10]) it was 2.46 nM; in data set [4] (setting [11]) it was 0.93 nM; in data set [5] (setting [12]), 2.15 nM. Also, the bioavailability in [8] turned out to be 34.5%. The AUC stood at 0.893 µg·h/mL in [8] (intravenous dosing 4 mg/kg) and 1.54 µg·h/mL in data set [8] (oral dosing 20 mg/kg). Moreover, the half-life in data set [8] (intravenous dosing 4 mg/kg) was 1.42 h. Besides, the Cmax in [8] (oral dosing 20 mg/kg) amounted to 0.5 µg/mL.
Take `CCN(c1cc(-c2ccc3c(c2)CCC3N2CCOCC2)c(Cl)c(C(=O)NCc2c(OC)cc(C)[nH]c2=O)c1C)C1CCOCC1` (stereo not drawn) [Compound 12, 2-chloro-5-(ethyl(tetrahydro-2H-pyran-4-yl)amino)-N-((4-methoxy-6-methyl-2-carbonyl-1,2-dihydropyridin-3-yl)methyl)-6-methyl-3-(1-morpholino-2,3-dihydro-1H-inden-5-yl)benzamide]: the IC50 was 2.36 nM in [3] (Homo sapiens, WSUDLCL2, […]); 1.69 nM in data set [4] (Homo sapiens, Pfeiffer, […]); 1.84 nM in [5] (Homo sapiens, KARPAS-422, […]). Also, the bioavailability in data set [8] worked out at 27.4%. Further, the AUC in data set [8] (intravenous dosing 4 mg/kg) came to 0.956 µg·h/mL; in data set [8] (oral dosing 20 mg/kg) it was 1.31 µg·h/mL. Further, in [8] (intravenous dosing 4 mg/kg), the half-life was 1.42 h. Besides, the Cmax in data set [8] (oral dosing 20 mg/kg) is 0.48 µg/mL. For the same compound, the tumor growth inhibition in data set [9] (setting [13]) amounted to 85%.
For `CC[C@H](C)n1cc(C)c2c(C(=O)NCc3c(C)cc(C)[nH]c3=O)cc(-c3ccc(N4CCNCC4)nc3)cc21` [GSK126, reference compound], the IC50 in [3] (setting [14]) is 34.1 nM; in data set [4] (setting [14]), 12.2 nM; in data set [5] (setting [14]), 20.3 nM. This compound registered a tumor growth inhibition in [9] (50 mg/kg abdominal, once a day for 21 days) of 61%.
`CCN(c1cc(N2Cc3ccc(N4CCOCC4)cc3C2)cc(C(=O)NCc2c(C)cc(C)[nH]c2=O)c1C)C1CCOCC1` [Compound 18, N-((4,6-dimethyl-2-oxo-1,2-dihydropyridin-3-yl)methyl)-3-(ethyl (tetrahydro-2H-pyran-4-yl)amino)-2-methyl-5-(5-morpholinoisoindolin-2-yl) benzamide]: the IC50 in [7] is 0.71 nM; in data set [1] it was 0.64 nM; in data set [2], 0.5 nM; in data set [3] (setting [10]) it was 2.89 nM; in [4] (setting [11]) it was 1.86 nM; in [5] (setting [12]), 2.34 nM. The compound further returned an IC50 in data set [6] of 0.8 nM. Besides, the bioavailability in [8] turned out to be 34.3%. The results for the exposure (AUC) in data set [8] (intravenous dosing 4 mg/kg) and in [8] (oral dosing 20 mg/kg) were 0.969 µg·h/mL and 1.66 µg·h/mL, respectively. In [8] (intravenous dosing 4 mg/kg), the half-life was 1.57 h. For the same compound, the Cmax in data set [8] (oral dosing 20 mg/kg) is 0.457 µg/mL.
Take `CCN(c1cc(-c2cc3c(cc2F)C(N2CCOCC2)CC3)cc(C(=O)NCc2c(C)cc(C)[nH]c2=O)c1C)C1CCOCC1` (stereo not drawn) [Compound 24]: the IC50 was 0.61 nM in data set [1]; 5.28 nM in data set [3] (setting [10]); 2.96 nM in data set [4] (setting [11]); 4.47 nM in data set [5] (setting [12]); 0.87 nM in data set [6].
For the compound `CCN(c1cc(N2CCc3ccccc3C2)cc(C(=O)NCc2c(C)cc(C)[nH]c2=O)c1C)C1CCOCC1` [Compound 16, 5-(3,4-dihydroisoquinoline-2(1H)-yl)-N-((4,6-dimethyl-2-oxo-1,2-dihydropyridin-3-yl)methyl)-3-(ethyl(tetrahydro-2H-pyran-4-yl)amino)-2-methylbenzamide], the IC50 was 0.82 nM in data set [7]; 0.74 nM in [1]; 0.61 nM in [2]; 5.12 nM in [3] (setting [10]); 1.87 nM in data set [4] (setting [11]); 3.34 nM in data set [5] (setting [12]). In [6], this compound yielded an IC50 of 0.95 nM. For the same compound, in [8], the bioavailability came to 24.4%. For the same compound, the AUC in [8] (intravenous dosing 4 mg/kg) came to 0.975 µg·h/mL; in data set [8] (oral dosing 20 mg/kg) it was 1.19 µg·h/mL. In addition, the half-life in [8] (intravenous dosing 4 mg/kg) was 1.87 h. For the same compound, the Cmax in data set [8] (oral dosing 20 mg/kg) worked out at 0.433 µg/mL.
As for `CCN(c1cc(-c2ccc3c(c2)CCN3C2CCOCC2)cc(C(=O)NCc2c(C)cc(C)[nH]c2=O)c1C)C1CCOCC1` [Compound 29, N-((4,6-dimethyl-2-oxo-1,2-dihydropyridin-3-yl)methyl)-3-(ethyl (tetrahydro-2H-pyran-4-yl)amino)-2-methyl-5-(1-(1-tetrahydro-2H-pyran-4-yl)indolin-5-yl)benzamide], the IC50 in data set [3] (setting [10]) is 2.18 nM; in [4] (setting [11]), 1.42 nM; in data set [5] (setting [12]), 1.99 nM. Moreover, the tumor growth inhibition in data set [9] (setting [13]) worked out at 78%.

The values above are taken from US12595267B2, “Preparation method for amide compound and application thereof in field of medicine” (Shanghai Synergy Pharmaceutical Sciences Co., Ltd., priority 2019, dated 2026).
